Target: T1, green eNL (GeNL) (Oplophorus gracilirostris, UniProt Q9GV45, A31E/Q38R/Q45L/L54V/A60N/K70R/V71I/A81I/F95D/L99Q/M102K/I117V/P142E/Q151K/Y165I/N193R)
T1 construct: single-chain fusion: C-terminally truncated mNeonGreen - two-residue linker - NanoLuc (N-terminal deletion 4); N-terminal His tag; E. coli; with mNeonGreen
Assay: luminescence initial velocity (first […] s), Michaelis-Menten fit
Assay type: biochemical
Settings: 10 pM enzyme; furimazine 0.025-13 μM

T1 sequence (Q9GV45 30-196 with the stated changes): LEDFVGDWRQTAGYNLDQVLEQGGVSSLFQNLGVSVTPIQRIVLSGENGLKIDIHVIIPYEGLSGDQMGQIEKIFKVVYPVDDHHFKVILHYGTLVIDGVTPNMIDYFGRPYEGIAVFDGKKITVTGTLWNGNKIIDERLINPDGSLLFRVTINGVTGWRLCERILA

## O=c1c(Cc2ccco2)nc2c(Cc3ccccc3)[nH]c(-c3ccccc3)cn1-2 [furimazine]
  Km: enzymatic parameters (Km and kcat) of the eNLs and Nluc

Source: PMC5171807, “Five colour variants of bright luminescent protein for real-time multicolour bioimaging” (Nature Communications, 2016)
